In patent US10087195B2, “Certain protein kinase inhibitors” (Shanghai Fochon Pharmaceutical Co., Ltd., priority 2014, dated 2018):

Legend:
[1] = tested on: BE(2)-C Cells; assay: BE(2)-C cell proliferation assay (MTS); type: cell-based; settings: Homo sapiens, compound treatment 72 hours
Procedure: BE(2)-C Cells were plated in 96-well plates with 150 μl culture medium at cell density of 5000 cells/well. Compounds dilution: 20 mM stock solution of all compounds in DMSO. On the day of treatment, compounds were fresh diluted from the stock solution to a working solution (4× of final concentrations) in culture medium. 50 μl of compound mixtures were added to duplicate wells along with 150 μl of cells. 24 hours after BE(2)-C cells were plated, testing compounds were added. Cell proliferation was measured by MTS assay following manufacturer's instruction after compound treatment for 72 hours.

[2] = tested on: COLO-205 cells; assay: COLO-205 cell proliferation assay (MTS), mechanism-based assay for CDK4/6 inhibition; settings: Homo sapiens, compound treatment 48 h, MTS absorbance 490 nm, read-out: COLO205 IC50
Procedure: To investigate whether a compound is able to inhibit the activity of CDK4/6 in cells, a mechanism-based assay using COLO-205 cell was developed. In this assay, inhibition of CDK4/6 was detected by the inhibition of COLO-205 cells proliferation. COLO-205 cells were cultured in culture flasks to 40-80% confluence in RPMI-1640 plus 10% fetal bovine serum. Cells were collected and plated onto 96-well plates at desired cell density (2000 cells/well). Plates were incubated overnight at 37° C., with 5% CO2 to adhere. Compounds were added to the plates, the final compound concentrations were […], 123.5, 41.2, 13.7, 4.6 and 1.5 nM. Place plates at 37° C., with 5% CO2 for 48 h. After removing the medium, 20 μl MTS/100 μl medium mixture solution were added to each well and incubate the plates for exactly 1.5 hours. Stop the reaction by adding 25 μl 10% SDS per well. Measure absorbance at 490 nm and 650 nm (reference wavelength). IC50 was calculated using GraphPad Prism 5.0.

| SMILES | IC50 [2] | IC50 [1] |
| --- | --- | --- |
| CN(C)C(=O)c1sc2cnc(Nc3ccc(N4CCNCC4)cn3)nc2c1C1CCCC1 [Example 1, 7-Cyclopentyl-N,N-dimethyl-2-(5-(piperazin-1-yl)pyridin-2-ylamino)thieno[3,2-d]pyrimidine-6-carboxamide] | 1110 nM | 38.5 nM |
| CN1CCN(c2ccc(Nc3ncc4sc(C(=O)N(C)C)c(C5CCCC5)c4n3)nc2)CC1 [Example 2, 7-Cyclopentyl-N,N-dimethyl-2-(5-(4-methylpiperazin-1-yl)pyridin-2-ylamino)thieno[3,2-d]pyrimidine-6-carboxamide] | 339 nM | 24.1 nM |
| CN(C)C(=O)c1cc2cnc(Nc3ccc(N4CCNCC4)cn3)nn2c1C1CCCC1 [Example 5, 7-cyclopentyl-N,N-dimethyl-2-((5-(piperazin-1-yl)pyridin-2-yl)amino)pyrrolo[2,1-f][1,2,4]triazine-6-carboxamide] | 517 nM | 601 nM |
| CN(C)C(=O)c1sc2cnc(Nc3ccc4c(n3)CCNC4)nc2c1[C@H]1CC[C@H](C)CC1 [Example 87, N,N-dimethyl-7-((1r,4r)-4-methylcyclohexyl)-2-((5,6,7,8-tetrahydro-1,6-naphthyridin-2-yl)amino)thieno[3,2-d]pyrimidine-6-carboxamide] | 450 nM |  |
| CN(C)C(=O)c1sc2cnc(Nc3ccc4c(n3)CCN(C(=O)CO)C4)nc2c1[C@H]1CC[C@H](C)CC1 [Example 90, 2-((6-(2-hydroxyacetyl)-5,6,7,8-tetrahydro-1,6-naphthyridin-2-yl)amino)-N,N-dimethyl-7-((1r,4r)-4-methylcyclohexyl)thieno[3,2-d]pyrimidine-6-carboxamide] | 270 nM |  |

Further molecules by falling IC50 [2], results first:

| IC50 [2] | SMILES | IC50 [1] |
| --- | --- | --- |
| 855 nM | CN1CCc2nc(Nc3ncc4sc(C(=O)N(C)C)c([C@H]5CC[C@H](C)CC5)c4n3)ccc2C1 [Example 88, N,N-dimethyl-2-((6-methyl-5,6,7,8-tetrahydro-1,6-naphthyridin-2-yl)amino)-7-((1r,4r)-4-methylcyclohexyl)thieno[3,2-d]pyrimidine-6-carboxamide] |  |
| 711 nM | CN(C)C(=O)c1oc2cnc(Nc3ccc(N4CCNCC4)cn3)nc2c1C1CCCC1 [Example 7, 7-cyclopentyl-N,N-dimethyl-2-((5-(piperazin-1-yl)pyridin-2-yl)amino)furo[3,2-d]pyrimidine-6-carboxamide] |  |
| 624 nM | NC(=O)c1sc2cnc(Nc3ccc(N4CCNCC4)cn3)nc2c1C1CCCC1 [Example 73, 7-cyclopentyl-2-((5-(piperazin-1-yl)pyridin-2-yl)amino)thieno[3,2-d]pyrimidine-6-carboxamide] |  |
| 389 nM | CC(=O)N1CCc2nc(Nc3ncc4sc(C(=O)N(C)C)c([C@H]5CC[C@H](C)CC5)c4n3)ccc2C1 [Example 89, 2-((6-acetyl-5,6,7,8-tetrahydro-1,6-naphthyridin-2-yl)amino)-N,N-dimethyl-7-((1r,4r)-4-methylcyclohexyl)thieno[3,2-d]pyrimidine-6-carboxamide] |  |
| 223 nM | CN(C)C(=O)c1sc2cnc(Nc3ccc(N4CCNCC4)nn3)nc2c1[C@H]1CC[C@H](C)CC1 [Example 91, N,N-dimethyl-7-((1r,4r)-4-methylcyclohexyl)-2-((6-(piperazin-1-yl)pyridazin-3-yl)amino)thieno[3,2-d]pyrimidine-6-carboxamide] |  |
